# Read-outs that look alike come from different tables or passages of the source.
# Experiments:
# Assay type in all cases: cell-based
# Escherichia coli NIHJ = assay: MIC against Escherichia coli NIHJ; conditions: Escherichia coli
# Description: (§1) Below are described the antibacterial activities of the compounds in the compositions according to this invention.
# (§2) The testing method complied with the standard method of Japan Sociaty of Chemotherapy.
# [1] = test system: Staphylococcus aureus FDA 209P; assay: MIC against Staphylococcus aureus FDA 209P; conditions: Staphylococcus aureus, FDA209P, 24 h
# Description: as §1, §2
# [2] = test system: Desulfovibrio desulfuricans IFO 13699; assay: MIC against Desulfovibrio desulfuricans; conditions: Desulfovibrio desulfuricans
# Description: as §1, §2
# [3] = Table 2, derivatives having a carboxylate radical, heart infusion agar, 37° C., 24 hours, read-out: MIC
SMILES,MIC (Escherichia coli NIHJ; 24 h) [µg/mL],MIC [1] [µg/mL],"MIC ([2]; IFO13699, 24 h) [µg/mL]",MIC (Escherichia coli NIHJ; [3]) [µg/mL],"MIC ([2]; IFO13699, Table 2, derivatives having a carboxylate radical, heart infusion agar, 37° C., 24 hours, read-out: MIC) [µg/mL]"
CCCCCCCCCCCCCCCCCCCCC(O)CNCCNCCN1CCC[N+](CC(=O)[O-])=C(C)CC1=O (stereo not drawn) [1-(2-hydroxy)docosylaminoethylaminoethyl-4-methyl-1-aza-5-azoniacyclooct-4-en-2-one-5-acetate],50,25,6.25,–,–
CCCCCCCCCCCCC(O)CN1CCC[N+](CC(=O)[O-])=C(C)CC1=O (stereo not drawn) [1-(2-hydroxy)tetradecyl-4-methyl-1-aza-5-azoniacyclooct-4-en-2-one-5-acetate],100,25,6.25,–,–
"CCCCCCCCCCCCCCC(O)CNCCN1CCC[N+](CC(=O)[O-])=CC(C)(C)C1=O (stereo not drawn) [1-(2-hydroxyhexadecyl)aminoethyl-3,3-dimethyl-1-aza-5-azoniacyclooct-4-en-2-one-5-acetate]",100,12.5,12.5,–,–
CCCCCCCCC=CCCCCCCCCN1CCC[N+](CC(=O)[O-])=C(C)CC1=O [1-(9-octadecenyl)-4-methyl-1-aza-5-azoniacyclooct-4-en-2-one-5-acetate],–,12.5,12.5,800,–
CCCCCCCCCCCCOCC(O)CN1CCC[N+](C(C)C(=O)[O-])=C(C)CC1=O (stereo not drawn) [1-docoxy(2-hydroxy)propyl-4-methyl-1-aza-5-azoniacyclooct-4-en-2-one-5-propionate],–,25,12.5,800,–
CCCCCCCCCCCCN1CCC[N+](CC(=O)[O-])=CC(C)C1=O (stereo not drawn) [1-dodecyl-3-methyl-1-aza-5-azoniacyclooct-4-en-2-one-5-acetate],–,50,25,1600,–
CCCCCCCCCCCCN1CCC[N+](CC(=O)[O-])=C(C)CC1=O [1-dodecyl-4-methyl-1-aza-5-azoniacyclooct-4-en-2-one-5-acetate],–,100,12.5,3200,–
CCCCCCCCCCCCNCCNCCNCCCN1CCC[N+](CC(=O)[O-])=C(C)CC1=O [1-dodecylaminoethylaminoethylaminopropyl-4-methyl-1-aza-5-azoniacyclooct-4-en-2-one-5-acetate],100,12.5,25,–,–
CCCCCCCCCCCCNCCCN1CCC[N+](CC(=O)[O-])=C(C)CC1=O [1-dodecylaminopropyl-4-methyl-1-aza-5-azoniacyclooct-4-en-2-one-5-acetate],100,12.5,50,–,–
CCCCCCCCCCCC(=O)OCCN1CCC[N+](CC(=O)[O-])=C(C)CC1=O [1-lauroyloxyethyl-4-methyl-1-aza-5-azoniacyclooct-4-en-2-one-5-acetate],–,400,25,3200,–
CCCCCCCCCc1ccc(OCCOCCN2CCC[N+](CC(=O)[O-])=C(C)CC2=O)cc1 [1-nonylphenylpoly(2 moles)oxyethyleneoxyethyl-4-methyl-1-aza-5-azoniacyclooct-4-en-2-one-5-acetate],200,12.5,25,–,–
"CCCCCCCCCCCCCCNCCN1CCC[N+](C(C)C(=O)[O-])=CC(C)(C)C1=O (stereo not drawn) [1-tetradecylaminoethyl-3,3-dimethyl-1-aza-5-azoniacyclooct-4-en-2-one-5-propionate]",100,12.5,6.25,–,–
CCCCCCCCCCCCCCNCCN1CCC[N+](C(C)C(=O)[O-])=CC(C)C1=O (stereo not drawn) [1-tetradecylaminoethyl-3-methyl-1-aza-5-azoniacyclooct-4-en-2-one-5-propionate],100,6.25,6.25,–,–
CCCCCCCCCCC(O)CN1CC[N+](CC(=O)[O-])=CC(C)C1=O (stereo not drawn) [4-(2-hydroxy)dodecyl-6-methyl-1-azonia-4-azacyclohept-7-en-5-one-1-acetate],–,25,25,800,–
CCCCCCCCCCC(O)CN1CC[N+](CC(=O)[O-])=C(C)CC1=O (stereo not drawn) [4-(2-hydroxy)dodecyl-7-methyl-1-azonia-4-azacyclohept-7-en-5-one-1-acetate],200,100,6.25,–,–
CCCCCCCCCCCCCCC(O)CNCCN1CC[N+](CC(=O)[O-])=CCCC1=O (stereo not drawn) [4-(2-hydroxyhexadecyl)aminoethyl-4-aza-1-azoniacyclooct-8-en-5-one-1-acetate],100,12.5,6.25,–,–
"CCCCCCCCCCCCCCC(O)CNCCN1CC[N+](CC(=O)[O-])=CC(C)(C)C1=O (stereo not drawn) [4-(2-hydroxyhexadecyl)aminoethyl-6,6-dimethyl-1-azonia-4-azacyclohept-7-en-5-one-1-acetate]",200,12.5,6.25,–,–
CCCCCCCCCCCCCCC(O)CNCCN1CC[N+](CC(=O)[O-])=CCC(C)C1=O (stereo not drawn) [4-(2-hydroxyhexadecyl)aminoethyl-6-methyl-4-aza-1-azoniacyclooct-8-en-5-one-1-acetate],100,25,25,–,–
CCCCCCCCCCCCCCC(O)CNCCN1CC[N+](CC(=O)[O-])=C(C)CC1=O (stereo not drawn) [4-(2-hydroxyhexadecyl)aminoethyl-7-methyl-1-azonia-4-azacyclohept-7-en-5-one-1-acetate],50,25,–,–,3.12
CCCCCCCCCCCCC(O)CNCCN1CC[N+](CC(=O)[O-])=C(C)CC1=O (stereo not drawn) [4-(2-hydroxytetradecyl)aminoethyl-7-methyl-1-azonia-4-azacyclohept-7-en-5-one-1-acetate],100,50,12.5,–,–

# — US4346087A, “Antibacterial surface active agent containing azaalkenelactam” (priority 1979, dated 1982)
